Blank lines part the entries; values can stand above or below the molecule they belong to.
How the values were obtained:
[1] = target: Calcium/calmodulin-dependent protein kinase type 1G (Homo sapiens) (UniProt Q96NX5); assay: Selectivity interaction (Kinase panel (DSF assay)) EUB0001559a CAMK1G
[2] = target: T1, Tyrosine-protein kinase JAK3 (Homo sapiens) (UniProt P52333); assay: Selectivity interaction (Kinase panel (literature)) EUB0001199aCl JAK3; conditions: at 1 µM
T1 sequence (whole entry): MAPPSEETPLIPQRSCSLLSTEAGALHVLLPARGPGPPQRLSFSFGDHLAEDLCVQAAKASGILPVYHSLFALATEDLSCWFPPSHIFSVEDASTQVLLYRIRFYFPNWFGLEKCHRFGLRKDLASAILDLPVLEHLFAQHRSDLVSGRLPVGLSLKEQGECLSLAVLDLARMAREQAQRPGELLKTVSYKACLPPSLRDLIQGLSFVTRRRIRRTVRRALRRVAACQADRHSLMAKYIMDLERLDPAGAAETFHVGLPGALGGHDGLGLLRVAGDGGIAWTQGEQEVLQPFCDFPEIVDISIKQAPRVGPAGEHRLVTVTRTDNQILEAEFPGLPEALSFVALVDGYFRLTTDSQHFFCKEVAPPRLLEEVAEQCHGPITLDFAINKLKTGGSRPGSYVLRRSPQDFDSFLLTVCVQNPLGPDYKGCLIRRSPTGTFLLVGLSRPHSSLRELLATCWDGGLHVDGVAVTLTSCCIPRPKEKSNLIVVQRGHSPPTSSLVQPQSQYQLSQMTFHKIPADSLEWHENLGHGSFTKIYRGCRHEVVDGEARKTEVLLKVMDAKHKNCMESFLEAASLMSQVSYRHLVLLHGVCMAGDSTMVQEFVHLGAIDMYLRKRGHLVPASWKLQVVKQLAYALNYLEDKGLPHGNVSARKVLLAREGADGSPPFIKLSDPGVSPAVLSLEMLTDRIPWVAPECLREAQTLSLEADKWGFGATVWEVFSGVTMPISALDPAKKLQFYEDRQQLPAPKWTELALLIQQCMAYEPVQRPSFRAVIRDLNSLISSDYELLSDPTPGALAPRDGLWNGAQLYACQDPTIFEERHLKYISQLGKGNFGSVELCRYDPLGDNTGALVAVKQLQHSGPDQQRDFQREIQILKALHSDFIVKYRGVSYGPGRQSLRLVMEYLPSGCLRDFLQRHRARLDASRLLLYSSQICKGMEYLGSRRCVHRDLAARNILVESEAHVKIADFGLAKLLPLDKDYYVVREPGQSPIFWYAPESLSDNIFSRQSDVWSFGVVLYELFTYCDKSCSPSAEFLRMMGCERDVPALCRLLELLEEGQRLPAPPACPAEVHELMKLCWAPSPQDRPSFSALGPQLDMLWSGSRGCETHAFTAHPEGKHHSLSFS

[3] = target: Dual specificity mitogen-activated protein kinase kinase 2 (Homo sapiens) (UniProt P36507); assay: Selectivity interaction (SelectScreen profiling (Invitrogen)) EUB0000607a MAP2K2; conditions: at 2 µM
[4] = target: Dual specificity protein kinase CLK3 (Homo sapiens, UniProt P49761); assay: Selectivity interaction (Kinase panel (DSF assay)) EUB0001558a CLK3
[5] = target: Serine/threonine-protein kinase PLK2 (Homo sapiens, UniProt Q9NYY3); assay: Selectivity interaction (KinomeScan (DiscoverX)) EUB0000045b PLK2
[6] = target: T2, Inhibitor of nuclear factor kappa-B kinase subunit beta (Homo sapiens) (UniProt O14920); assay: Selectivity interaction (KinomeScan (DiscoverX)) EUB0000045b IKBKB
T2 sequence (whole entry): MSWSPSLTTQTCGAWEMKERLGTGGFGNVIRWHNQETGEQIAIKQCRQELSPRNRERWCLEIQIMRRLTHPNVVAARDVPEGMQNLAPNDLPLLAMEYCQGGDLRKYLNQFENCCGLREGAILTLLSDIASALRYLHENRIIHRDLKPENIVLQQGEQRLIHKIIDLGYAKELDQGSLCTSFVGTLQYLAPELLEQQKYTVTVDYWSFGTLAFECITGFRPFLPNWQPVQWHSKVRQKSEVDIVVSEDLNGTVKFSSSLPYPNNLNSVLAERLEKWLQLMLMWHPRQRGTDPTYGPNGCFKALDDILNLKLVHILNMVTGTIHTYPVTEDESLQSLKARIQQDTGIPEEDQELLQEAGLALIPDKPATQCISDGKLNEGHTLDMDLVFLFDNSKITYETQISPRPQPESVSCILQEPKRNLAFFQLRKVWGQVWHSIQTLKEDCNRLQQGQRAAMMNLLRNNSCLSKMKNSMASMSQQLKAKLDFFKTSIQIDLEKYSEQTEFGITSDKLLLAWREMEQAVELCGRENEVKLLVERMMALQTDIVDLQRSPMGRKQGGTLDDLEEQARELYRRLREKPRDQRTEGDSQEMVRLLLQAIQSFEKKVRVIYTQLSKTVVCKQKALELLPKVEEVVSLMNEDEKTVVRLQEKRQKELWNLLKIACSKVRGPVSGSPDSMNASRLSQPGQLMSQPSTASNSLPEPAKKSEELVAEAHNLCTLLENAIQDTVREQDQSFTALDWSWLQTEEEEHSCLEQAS

[7] = target: Serine/threonine-protein kinase VRK2 (Homo sapiens) (UniProt Q86Y07); assay: Selectivity interaction (KinomeScan (DiscoverX)) EUB0001049a VRK2; conditions: at 1 µM
[8] = target: Ribosomal protein S6 kinase alpha-1 (Homo sapiens, UniProt Q15418); assay: Selectivity interaction (KinomeScan (DiscoverX)) EUB0000666a RPS6KA1; conditions: at 10 µM
Ribosomal protein S6 kinase alpha-1, sequence (Q15418 whole entry): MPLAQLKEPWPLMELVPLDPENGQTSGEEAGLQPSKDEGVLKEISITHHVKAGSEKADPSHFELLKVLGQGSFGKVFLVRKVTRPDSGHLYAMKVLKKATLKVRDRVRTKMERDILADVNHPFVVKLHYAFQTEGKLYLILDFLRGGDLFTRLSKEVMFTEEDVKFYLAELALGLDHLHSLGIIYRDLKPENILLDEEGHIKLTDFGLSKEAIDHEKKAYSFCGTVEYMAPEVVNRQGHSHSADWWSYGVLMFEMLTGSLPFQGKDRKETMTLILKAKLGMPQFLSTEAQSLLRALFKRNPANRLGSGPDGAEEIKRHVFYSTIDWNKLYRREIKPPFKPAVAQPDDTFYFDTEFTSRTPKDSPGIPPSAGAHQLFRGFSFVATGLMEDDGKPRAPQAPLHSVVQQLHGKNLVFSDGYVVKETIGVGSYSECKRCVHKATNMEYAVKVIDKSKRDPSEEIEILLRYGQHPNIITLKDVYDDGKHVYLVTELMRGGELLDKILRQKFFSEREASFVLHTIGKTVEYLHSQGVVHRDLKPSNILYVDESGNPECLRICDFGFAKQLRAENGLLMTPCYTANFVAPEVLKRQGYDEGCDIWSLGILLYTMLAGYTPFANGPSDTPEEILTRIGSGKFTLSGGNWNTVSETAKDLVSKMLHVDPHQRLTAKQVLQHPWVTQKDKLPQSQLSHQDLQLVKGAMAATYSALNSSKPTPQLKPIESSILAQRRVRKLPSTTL

Serine/threonine-protein kinase PLK2, sequence (Q9NYY3 whole entry, looked up): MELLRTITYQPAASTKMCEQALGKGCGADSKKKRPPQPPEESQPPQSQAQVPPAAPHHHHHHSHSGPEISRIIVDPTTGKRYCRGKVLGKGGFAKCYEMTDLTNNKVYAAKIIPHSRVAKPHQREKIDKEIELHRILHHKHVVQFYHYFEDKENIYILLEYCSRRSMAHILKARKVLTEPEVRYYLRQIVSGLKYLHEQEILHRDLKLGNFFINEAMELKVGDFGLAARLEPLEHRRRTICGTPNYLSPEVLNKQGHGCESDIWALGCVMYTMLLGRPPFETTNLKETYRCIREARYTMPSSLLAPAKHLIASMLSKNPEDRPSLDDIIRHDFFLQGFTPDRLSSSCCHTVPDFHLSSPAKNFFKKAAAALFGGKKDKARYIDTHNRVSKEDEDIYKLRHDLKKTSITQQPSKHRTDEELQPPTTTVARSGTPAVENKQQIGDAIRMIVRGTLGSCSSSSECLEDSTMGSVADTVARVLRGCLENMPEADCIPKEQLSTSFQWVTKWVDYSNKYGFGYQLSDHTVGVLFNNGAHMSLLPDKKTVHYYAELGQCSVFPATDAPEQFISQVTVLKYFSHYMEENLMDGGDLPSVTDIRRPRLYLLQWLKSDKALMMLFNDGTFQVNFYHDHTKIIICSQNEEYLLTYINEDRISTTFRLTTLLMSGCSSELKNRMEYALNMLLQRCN
Serine/threonine-protein kinase VRK2 (Homo sapiens), sequence (Q86Y07 whole entry): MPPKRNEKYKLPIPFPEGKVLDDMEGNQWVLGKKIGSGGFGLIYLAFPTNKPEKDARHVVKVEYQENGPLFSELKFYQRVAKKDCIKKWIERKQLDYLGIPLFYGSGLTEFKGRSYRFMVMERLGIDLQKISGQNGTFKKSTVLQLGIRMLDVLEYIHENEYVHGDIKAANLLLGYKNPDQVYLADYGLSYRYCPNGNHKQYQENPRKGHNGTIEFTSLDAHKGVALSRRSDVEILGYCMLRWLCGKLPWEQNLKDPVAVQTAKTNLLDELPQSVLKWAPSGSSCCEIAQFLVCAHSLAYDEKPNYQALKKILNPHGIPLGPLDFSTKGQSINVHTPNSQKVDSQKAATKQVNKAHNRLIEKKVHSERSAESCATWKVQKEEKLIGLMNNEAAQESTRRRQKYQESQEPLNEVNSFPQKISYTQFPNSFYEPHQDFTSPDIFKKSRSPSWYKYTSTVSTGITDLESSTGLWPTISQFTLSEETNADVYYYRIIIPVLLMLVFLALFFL
Calcium/calmodulin-dependent protein kinase type 1G (Homo sapiens), sequence (Q96NX5 whole entry): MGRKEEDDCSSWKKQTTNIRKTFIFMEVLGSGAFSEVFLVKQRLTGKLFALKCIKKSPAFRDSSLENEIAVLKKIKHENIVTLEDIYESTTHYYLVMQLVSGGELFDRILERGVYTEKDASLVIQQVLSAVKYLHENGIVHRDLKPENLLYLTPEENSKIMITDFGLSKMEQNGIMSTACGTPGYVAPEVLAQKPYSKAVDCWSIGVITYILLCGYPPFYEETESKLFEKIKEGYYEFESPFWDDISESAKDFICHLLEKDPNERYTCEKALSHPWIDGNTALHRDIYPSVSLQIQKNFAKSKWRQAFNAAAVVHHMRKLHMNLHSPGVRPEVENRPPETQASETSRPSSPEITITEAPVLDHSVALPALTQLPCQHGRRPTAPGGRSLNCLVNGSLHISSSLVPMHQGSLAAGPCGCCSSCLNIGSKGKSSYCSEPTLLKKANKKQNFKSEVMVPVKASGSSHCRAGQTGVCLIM
Dual specificity mitogen-activated protein kinase kinase 2 (Homo sapiens), sequence (P36507 whole entry): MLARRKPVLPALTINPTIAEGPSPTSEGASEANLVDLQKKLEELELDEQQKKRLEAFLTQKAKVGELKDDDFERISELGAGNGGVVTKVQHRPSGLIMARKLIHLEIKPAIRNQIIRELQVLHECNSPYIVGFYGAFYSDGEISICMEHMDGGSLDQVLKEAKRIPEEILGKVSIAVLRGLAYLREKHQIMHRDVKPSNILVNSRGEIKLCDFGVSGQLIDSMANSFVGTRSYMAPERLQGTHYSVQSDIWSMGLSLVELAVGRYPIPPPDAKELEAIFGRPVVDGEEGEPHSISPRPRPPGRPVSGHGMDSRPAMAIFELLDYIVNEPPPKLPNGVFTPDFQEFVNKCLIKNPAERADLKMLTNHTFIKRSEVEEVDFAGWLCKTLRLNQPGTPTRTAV
Dual specificity protein kinase CLK3, sequence (P49761 whole entry, looked up): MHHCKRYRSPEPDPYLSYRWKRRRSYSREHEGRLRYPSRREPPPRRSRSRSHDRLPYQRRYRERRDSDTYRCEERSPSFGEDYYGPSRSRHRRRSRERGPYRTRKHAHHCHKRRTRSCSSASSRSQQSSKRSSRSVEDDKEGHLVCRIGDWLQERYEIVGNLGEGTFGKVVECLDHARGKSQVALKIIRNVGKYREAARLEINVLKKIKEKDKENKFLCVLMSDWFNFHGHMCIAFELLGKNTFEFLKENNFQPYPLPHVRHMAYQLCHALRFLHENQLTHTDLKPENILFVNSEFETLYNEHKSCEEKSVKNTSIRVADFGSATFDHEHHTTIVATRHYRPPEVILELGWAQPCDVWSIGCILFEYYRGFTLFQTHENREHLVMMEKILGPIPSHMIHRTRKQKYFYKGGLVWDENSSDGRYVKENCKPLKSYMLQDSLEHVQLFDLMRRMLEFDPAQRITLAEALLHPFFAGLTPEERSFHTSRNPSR

- dTM [1]: -0.6 K
Structure (SMILES): CN(C(=O)c1cnn2cccnc12)c1cc2c(cc1N1CCOCC1)C(=O)N(C[C@@H](F)C(C)(C)O)C2

- % of inhibition [2]: -2%
Structure (SMILES): CN1Cc2nccc(-c3cn(C)nc3-c3ccc(F)cc3)c2C1=O

Structure (SMILES): CNC(=O)Nc1ccc(-c2nc(N3CC4CCC(C3)O4)c3cnn(C4CCC5(CC4)OCCO5)c3n2)cc1
- % of inhibition [3]: 2%

Structure (SMILES): CC(C)(O)[C@H](F)CN1Cc2cc(NC(=O)c3cnn4cccnc34)c(N3CCOCC3)cc2C1=O
- dTM [4]: 1.3 K

Structure (SMILES): C=CC(=O)Nc1cc(-n2c(=O)ccc3cnc4ccc(-c5ccc(NS(C)(=O)=O)cc5)cc4c32)ccc1C
- % of control ([5]; at 1 µM): 72%
- % of control ([5]; at 10 µM): 86%
- % of control ([6]; at 1 µM): 93%
- % of control ([6]; at 10 µM): 100%

Structure (SMILES): COc1cc(Nc2nc(C)cc(-c3cnn4nc(OC)ccc34)n2)cc(C(F)(F)F)c1
- % of control [7]: 100%

Structure (SMILES): O=C(NOC[C@H](O)CO)c1ccc(F)c(F)c1Nc1ccc(I)cc1F
- % of control [8]: 100%

Reference: ChEMBL document CHEMBL5465560, “Selectivity Literature for EUbOPEN Chemogenomic Library” (2024)
